# In article PMC8649774, “A New Class of Cell Wall-Recycling L,D-Carboxypeptidase Determines β-Lactam Susceptibility and Morphogenesis in Acinetobacter baumannii” (mBio, 2021):
# Biological target: T1, ElsL (ElsLHis) (Acinetobacter baumannii, UniProt A0ABX6CN83)
# T1 construct: gene FQU82_03167; leaderless cytoplasmic YkuD-domain protein, C-terminal 6xHis (pET28b), expressed in E. coli BL21(DE3), Ni-NTA purified with TCEP
# Experiment: UPLC-MS of reaction products
# Assay type: biochemical
# Details: 100 mM Tris-HCl, 37 °C, 2 h, 10 ng enzyme; M4 purified from Caulobacter crescentus sacculi
smiles,measurement,value
"CC(=O)N[C@H]1[C@H](O[C@H]2[C@H](O[C@H](C)C(=O)N[C@@H](C)C(=O)N[C@H](CCC(=O)N[C@@H](CCC[C@@H](N)C(=O)O)C(=O)N[C@H](C)C(=O)O)C(=O)O)[C@@H](NC(C)=O)C(O)O[C@@H]2CO)O[C@H](CO)[C@@H](O)[C@@H]1O (stereo partly shown) [M4, murotetrapeptide]",UPLC-MS of reaction products,ElsL completely cleaved the M4 substrate to the disaccharide tripeptide (M3)
